Measurements as given in patent US10793601B2, “Therapeutic spalt-like transcription factor 4 (SALL4) peptide” (National University of Singapore, priority 2016, dated 2020).
Values joined by “and” are separate entries in the source; they are usually repeats but may differ in a detail not shown here. Equal entries are not always repeated. Ends that are not written are not given here.

Legend:
SNU398 tumor xenografts = test: SNU398 xenograft in NSG mice; format: in vivo, NOD/SCID/gamma mice
Description: FIGS. 7A-7E. […] FIG. 7A: 7.2×10^5 SNU398 cells were inoculated subcutaneously into the right flank of NOD/SCID/gamma mice (NSG mice). Tumors were allowed to grow for one week before peptide treatments were administered every alternate day for a total of five injections. FIG. 7B: Tumor growth was documented by plotting tumor volume against time. […] FIG. 7C: Relative size of tumors resected on day 20. FIG. 7D: tumor weight was determined (n=5). […] FIG. 7E: Total RNA was isolated from the resected tumors and expression of PTEN was measured using real-time PCR.
FIGS. 9A-9E. […] FIG. 9A: PEN-FFW treated SNU398 tumor xenografts were compared to that of Sorafenib treated xenografts. FIG. 9B: PEN-FFW treated PLC8024 tumor xenografts were compared to that of Sorafenib treated xenografts. Mice body weight was measured to access toxicity of various peptides. FIG. 9C: Body weight of mice at day 17. FIG. 9D: Differences of body weight compared to day 0 (As indicated by the arrow in far left of FIG. 7A). FIG. 9E: Body weight of mice at day 19th in the experiment shown in FIG. 9A comparing effect of Sorafenib and PEN-FFW. Data represent mean±s.d. (n=5).
All mice were treated in accordance with Responsible Care and Use of Laboratory animals. In the SNU398 in vivo studies, 6-8-week-old female C.B-17 severe combined immunodeficient (SCID) mice (NSG) were inoculated s.c. into the flank with 7.2×10^5 cells in 2:1 PBS/Matrigel (BD Biosciences). The tumours were then allowed to develop to the size of 50-70 mm3 before intraperitoneal injections of the different peptides were given at two to three-day intervals for a total of 5 injections. Mice were randomly grouped in sets of six and treated with PEN (penetratin control), PEN-MUT (mutant control), PEN-WT (wild type control) and PEN-FFW (peptide 47). Tumor volumes were measured every 5 days and tumor weight were measured at the end point. For PEN control, 22.5 mg/kg were given; for PEN-MUT, PEN-WT and PEN-FFW, 35.6 mg/kg, 37 mg/kg and 36 mg/kg were given respectively to the mice according to their body weight Tumor measurements were taken twice weekly using Vernier calipers. Tumor volume was estimated using the following formula: V=0.5×width×width×length. When tumors approached ˜50 mm3, mice were randomized into groups of 5 animals each and received peptides treatment three times weekly by i.p. injection. All statistical analysis was done using a one-way ANOVA and Student's T-test.

SNU387 cells = test: Cell viability assay in SNU387 cells (no SALL4 expression); format: cell-based; details: cell viability after 72 hr
Description: FIGS. 6A-6B. Therapeutic window of PEN-FFW in HCC cell lines. FIG. 6A: Peptides were added to HCC cell line SNU398 with high expression of SALL4. FIG. 6B: HCC cell line SNU387 with no expression of SALL4, and cell viability was measured after 72 hr of incubation.
The efficacies of the FFW, WT and MUT peptides were compared at the cellular level and in mice. A penetratin sequence (PEN) was attached to the N-terminus of each peptide to facilitate cell penetration in vitro. […] The therapeutic window of PEN-FFW in SALL4 expressing HCC cells was accessed in SNU387 cells, a HCC line with undetectable level of SALL4, as well as SNU398. The MUT and WT SALL4 peptides were also included in this assay for comparison (FIGS. 6 A & B).

For RQIKIWFQNRRMKWKKRRKFAKFQWI [PEN-FFW], the “anti-tumor activity benchmarked against Sorafenib” value (SNU398 tumor xenografts; SNU398 xenograft, compared to vehicle treated groups) was “stronger anti-tumor activity than Sorafenib”, the “effect on tumor growth” value (SNU398 tumor xenografts; SNU398 xenograft, tumor volume against time) was “significant reduced growth rate” and the tumor weight (SNU398 tumor xenografts; mean, tumors resected on day 20, five i.p. injections) was 88.34 mg and 88 mg. For the same sequence, the “specificity SNU398 (SALL4 high) versus SNU387 (no SALL4)” value (SNU387 cells) was “specificity of PEN-FFW in targeting SALL4-high HCC cells (SNU398)”.
